This note sets out measurements from patent publication US9193722B2, “Tri-cyclic pyrazolopyridine kinase inhibitors” (Vertex Pharmaceuticals Incorporated, priority 2008, dated 2015).

Structures are written as SMILES. Bounds are passed on as bounds.

Holding throughout (type): biochemical
In one experiment the target is PKC alpha kinase (Homo sapiens, UniProt P17252). The experiment is described as follows: PKC alpha kinase inhibition, coupled-enzyme (NADH absorbance) assay, Ki. The following applies: 130 μM ATP, 4.5 nM PKC alpha kinase, 30° C. Put shortly:
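Enzyme in 100 mM HEPES pH 7.5, 10 mM MgCl2, 100 μM CaCl2, 0.01% Brij, preincubated with compound 10 min at 30 °C. Reaction started with 130 μM ATP (final); NADH consumption followed at 340 nm for 15 min at 30 °C. Ki fitted by non-linear regression of initial rates.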

Another experiment has as its target PKC theta kinase (Homo sapiens, UniProt Q04759). The experiment is described as follows: PKC theta kinase inhibition, coupled-enzyme (NADH absorbance) assay, Ki. As to conditions: 240 μM ATP, 18 nM PKC theta kinase, 30° C. The essentials: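 Coupled-enzyme kinase assay following NADH absorbance at 340 nm, in 100 mM HEPES pH 7.5, 10 mM MgCl2, 25 mM NaCl, 0.1 mM EDTA, 0.01% Brij. Compound in DMSO preincubated with enzyme 10 min at 30 °C. Ki from initial rates by non-linear regression.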

The target in the next experiment is PKC delta kinase (Homo sapiens, UniProt Q05655). The experiment is described as follows: PKC delta kinase inhibition, coupled-enzyme (NADH absorbance) assay, Ki. The following applies: 150 μM ATP, 46 nM PKC delta kinase, 30° C.; read-out: Ki PKC delta. The essentials: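 PKC delta in 100 mM HEPES pH 7.5, 10 mM MgCl2, 25 mM NaCl, 0.1 mM EDTA, 0.01% Brij, equilibrated 10 min at 30° C with compound from DMSO stock. Started with ATP at 150 μM final; NADH-coupled absorbance at 340 nm followed 15 min at 30° C. Ki from initial rates by non-linear regression.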
Sequence of PKC delta kinase (Q05655 whole entry): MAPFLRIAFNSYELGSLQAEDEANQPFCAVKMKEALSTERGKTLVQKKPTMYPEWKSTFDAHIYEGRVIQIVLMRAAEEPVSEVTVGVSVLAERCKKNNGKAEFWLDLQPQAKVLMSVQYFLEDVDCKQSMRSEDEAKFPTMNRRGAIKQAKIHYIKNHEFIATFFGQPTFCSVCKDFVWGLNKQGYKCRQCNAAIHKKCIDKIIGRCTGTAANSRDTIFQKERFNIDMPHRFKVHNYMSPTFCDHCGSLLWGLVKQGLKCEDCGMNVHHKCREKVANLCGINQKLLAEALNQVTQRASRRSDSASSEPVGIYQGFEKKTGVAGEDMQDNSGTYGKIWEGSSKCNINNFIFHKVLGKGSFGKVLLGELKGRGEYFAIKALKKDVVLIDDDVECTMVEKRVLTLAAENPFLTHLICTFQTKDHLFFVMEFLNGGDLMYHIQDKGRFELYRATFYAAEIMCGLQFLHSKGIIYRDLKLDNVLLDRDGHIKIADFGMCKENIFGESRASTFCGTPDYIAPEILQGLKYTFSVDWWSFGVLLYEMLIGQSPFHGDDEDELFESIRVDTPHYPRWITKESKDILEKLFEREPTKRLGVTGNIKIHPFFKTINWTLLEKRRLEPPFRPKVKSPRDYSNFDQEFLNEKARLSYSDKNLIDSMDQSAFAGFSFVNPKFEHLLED

Sequence of PKC theta kinase (Q04759 whole entry): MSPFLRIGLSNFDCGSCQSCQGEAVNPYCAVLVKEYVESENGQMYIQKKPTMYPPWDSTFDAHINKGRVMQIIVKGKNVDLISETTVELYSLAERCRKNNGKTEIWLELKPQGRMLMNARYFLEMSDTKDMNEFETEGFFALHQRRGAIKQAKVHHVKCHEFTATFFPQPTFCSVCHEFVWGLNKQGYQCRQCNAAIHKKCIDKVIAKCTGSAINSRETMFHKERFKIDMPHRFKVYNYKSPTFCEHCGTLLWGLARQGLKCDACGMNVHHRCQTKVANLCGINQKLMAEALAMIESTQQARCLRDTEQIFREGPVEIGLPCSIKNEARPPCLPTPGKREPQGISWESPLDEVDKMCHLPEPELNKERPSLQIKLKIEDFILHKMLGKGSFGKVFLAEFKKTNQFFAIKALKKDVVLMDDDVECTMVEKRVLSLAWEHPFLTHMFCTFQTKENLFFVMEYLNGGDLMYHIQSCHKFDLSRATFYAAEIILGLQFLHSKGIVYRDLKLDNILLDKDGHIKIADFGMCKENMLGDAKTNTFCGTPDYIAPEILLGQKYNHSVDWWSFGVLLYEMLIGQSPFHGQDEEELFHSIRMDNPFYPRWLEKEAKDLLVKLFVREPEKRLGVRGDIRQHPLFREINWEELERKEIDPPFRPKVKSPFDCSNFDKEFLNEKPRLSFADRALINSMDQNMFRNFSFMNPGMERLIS

`NCC1CCCN(c2cc(C(F)(F)F)cc(-c3n[nH]c4ncccc34)n2)C1` (stereo not drawn) [Compound 432]: the Ki at PKC alpha kinase is > 1.25 µM; on PKC theta kinase, < 0.05 µM; at PKC delta kinase it was > 1.25 µM.

As to `NCC1CN(c2cc(C(F)(F)F)cc(-c3n[nH]c4ncccc34)n2)C1` [Compound 433], the Ki at PKC alpha kinase was > 1.25 µM; at PKC theta kinase it was < 2.8 µM; at PKC delta kinase, > 1.25 µM.

With `CCC1(CC(C)C)CN(c2ccc(C(F)(F)F)c(-c3n[nH]c4ncccc34)n2)CCC1N` (stereo not drawn) [Compound 434], the Ki was < 0.5 µM on PKC alpha kinase, < 0.05 µM on PKC theta kinase and < 0.5 µM on PKC delta kinase.

Regarding `CCCC1(C)CN(c2ccc(C(F)(F)F)c(-c3n[nH]c4ncccc34)n2)CCC1N` (stereo not drawn) [Compound 435], the Ki on PKC alpha kinase was < 0.5 µM; at PKC theta kinase, < 0.05 µM; at PKC delta kinase it was < 0.5 µM.

Regarding `CC(C)C(C)(O)C1CN(c2ccc(Cl)c(-c3n[nH]c4ncccc34)n2)CCN1` (stereo not drawn) [Compound 437], the figures for the Ki at PKC alpha kinase, on PKC theta kinase and on PKC delta kinase were > 1.25 µM, < 0.05 µM and < 2.8 µM, respectively.

For the molecule `CC(C)C1(C)OC(=O)N2CCN(c3ccc(F)c(-c4n[nH]c5ncccc45)n3)CC21` (stereo not drawn) [Compound 439], the Ki at PKC alpha kinase is > 1.25 µM; at PKC theta kinase it was < 0.5 µM; at PKC delta kinase, > 1.25 µM.

On to `Fc1ccc(C2CCNCC2)nc1-c1n[nH]c2ncccc12` [Compound 440], for which the results for the Ki on PKC alpha kinase, at PKC theta kinase and on PKC delta kinase were > 1.25 µM, < 0.5 µM and > 1.25 µM, respectively.

As for `NC1CCN(c2cc(CO)cc(-c3n[nH]c4ncccc34)n2)CC1` [Compound 441], the figures for the Ki at PKC alpha kinase, at PKC theta kinase and on PKC delta kinase were > 1.25 µM, < 0.05 µM and < 0.5 µM, respectively.

`CC(C)C[C@H]1CN(c2cc(C#N)cc(-c3n[nH]c4ncccc34)n2)CCN1` [Compound 442]: the Ki is > 1.25 µM at PKC alpha kinase, < 0.5 µM on PKC theta kinase and < 0.5 µM on PKC delta kinase.

`OCc1cc(-c2n[nH]c3ncccc23)nc(N2CCNCC2)c1` [Compound 443]: the results for the Ki on PKC alpha kinase, on PKC theta kinase and on PKC delta kinase were > 1.25 µM, < 0.5 µM and < 2.8 µM, respectively.

As to `CC(C)C(C)(O)C1CN(c2nc(-c3n[nH]c4ncccc34)c(F)cc2F)CCN1` (stereo not drawn) [Compound 444], the Ki was > 1.25 µM on PKC alpha kinase, < 0.5 µM at PKC theta kinase and > 1.25 µM on PKC delta kinase.

Regarding `CC(C)[C@@](C)(O)[C@@H]1CN(c2nc(-c3n[nH]c4ncccc34)c(F)cc2F)CCN1` [Compound 445], the Ki is < 0.5 µM at PKC alpha kinase, < 0.001 µM at PKC theta kinase and < 0.05 µM at PKC delta kinase.

As for `CC(C)CC1(C#N)CCN(c2ccc(C(F)(F)F)c(-c3n[nH]c4ncccc34)n2)CC1` [Compound 446], the Ki is > 1.25 µM on PKC alpha kinase, > 0.7 µM on PKC theta kinase and > 1.25 µM at PKC delta kinase.

Take `CCC1(C)CN(c2ccc(C(F)(F)F)c(-c3n[nH]c4ncccc34)n2)CCC1N` (stereo not drawn) [Compound 447]: the Ki on PKC alpha kinase was > 1.25 µM; on PKC theta kinase, < 0.05 µM; on PKC delta kinase it was < 0.5 µM.

Turning to `CCC(N)C1(C(F)(F)F)CCN(c2ccc(F)c(-c3n[nH]c4ncccc34)n2)C1` (stereo not drawn) [Compound 448], the Ki is > 1.25 µM on PKC alpha kinase, < 0.5 µM at PKC theta kinase and < 2.8 µM at PKC delta kinase.

On to `CC(C)CC1CN(c2ccc(C(F)(F)F)c(-c3n[nH]c4ncccc34)n2)CCC1CC#N` (stereo not drawn) [Compound 450], for which the figures for the Ki on PKC alpha kinase, on PKC theta kinase and at PKC delta kinase were > 1.25 µM, < 0.5 µM and > 1.25 µM, respectively.

Consider `CC(C)C[C@H]1CN(c2cc(CO)cc(-c3n[nH]c4ncccc34)n2)CCN1` [Compound 451], for which the Ki at PKC alpha kinase was < 2.8 µM; at PKC theta kinase, < 0.05 µM; at PKC delta kinase, < 0.5 µM.

Consider `CC(C)CC1CN(c2ccc(F)c(-c3n[nH]c4ncccc34)n2)CCC1CC#N` (stereo not drawn) [Compound 452], for which the Ki on PKC alpha kinase was > 1.25 µM; on PKC theta kinase it was < 0.05 µM; at PKC delta kinase, > 1.25 µM.

With `NCC1CCN(c2cc(CO)cc(-c3n[nH]c4ncccc34)n2)CC1` [Compound 453], the results for the Ki at PKC alpha kinase, at PKC theta kinase and on PKC delta kinase were > 1.25 µM, < 0.05 µM and < 0.5 µM, respectively.

Regarding `CC(C)C(C)(O)C1CN(c2cc(CO)cc(-c3n[nH]c4ncccc34)n2)CCN1` (stereo not drawn) [Compound 454], the Ki at PKC alpha kinase was < 2.8 µM; at PKC theta kinase, < 0.05 µM; at PKC delta kinase it was < 0.5 µM.

With `CC(C)CC1(C#N)CN(c2ccc(F)c(-c3n[nH]c4ncccc34)n2)C1` [Compound 456], the Ki on PKC alpha kinase is > 1.25 µM; at PKC theta kinase, > 0.7 µM; on PKC delta kinase it was > 1.25 µM.

On to `CC(C)CC1(CN)CN(c2ccc(F)c(-c3n[nH]c4ncccc34)n2)C1` [Compound 457], for which the Ki was > 1.25 µM at PKC alpha kinase, > 0.7 µM on PKC theta kinase and > 1.25 µM at PKC delta kinase.

Regarding `N#CCCC1CN(c2ccc(F)c(-c3n[nH]c4ncccc34)n2)CCC1O` (stereo not drawn) [Compound 458], the values for the Ki on PKC alpha kinase, on PKC theta kinase and at PKC delta kinase were > 1.25 µM, < 0.5 µM and > 1.25 µM, respectively.

On to `N#CCCC1CN(c2ccc(C(F)(F)F)c(-c3n[nH]c4ncccc34)n2)CCC1O` (stereo not drawn) [Compound 459], for which the Ki on PKC alpha kinase was > 1.25 µM; on PKC theta kinase, < 2.8 µM; on PKC delta kinase, > 1.25 µM.

Turning to `NC1CCN(c2ccc(C(F)(F)F)c(-c3n[nH]c4ncccc34)n2)CC12CCCCC2` (stereo not drawn) [Compound 461], the Ki at PKC alpha kinase was > 1.25 µM; at PKC theta kinase, < 0.05 µM; at PKC delta kinase, < 0.5 µM.

For the molecule `NC1CCN(c2ccc(C(F)(F)F)c(-c3n[nH]c4ncccc34)n2)CC12CCOCC2` (stereo not drawn) [Compound 462], the Ki on PKC alpha kinase was > 1.25 µM; at PKC theta kinase, < 0.5 µM; on PKC delta kinase, < 2.8 µM.

Consider `NC1CCN(c2ccc(C(F)(F)F)c(-c3n[nH]c4ncccc34)n2)CC12CCCC2` (stereo not drawn) [Compound 464], for which the values for the Ki on PKC alpha kinase, on PKC theta kinase and at PKC delta kinase were < 0.5 µM, < 0.05 µM and < 0.5 µM, respectively.

Turning to `CC(C)CC1(CN)CCN(c2ccc(C(F)(F)F)c(-c3n[nH]c4ncccc34)n2)CC1` [Compound 466], the Ki is > 1.25 µM at PKC alpha kinase, < 0.5 µM at PKC theta kinase and > 1.25 µM on PKC delta kinase.

As to `CC(C)CC1(CN)CCN(c2ccc(F)c(-c3n[nH]c4ncccc34)n2)CC1` [Compound 467], the results for the Ki on PKC alpha kinase, on PKC theta kinase and on PKC delta kinase were > 1.25 µM, < 0.5 µM and > 1.25 µM, respectively.

As for `CC(C)CC1CN(c2ccc(C(F)(F)F)c(-c3n[nH]c4ncccc34)n2)CCC1CCN` (stereo not drawn) [Compound 469], the Ki at PKC alpha kinase was > 1.25 µM; at PKC theta kinase, < 0.5 µM; at PKC delta kinase it was > 1.25 µM.
